Test results: the OligoGym collection
HELM strings list units from the 5' end as sugar, base in round brackets, then linkage (d deoxyribose, r ribose, m 2'-O-methyl, p phosphodiester). Strings are as the collection lists them; they lack the last nucleoside at the 3' end of the tested compound. [moe] = 2'-O-(2-methoxyethyl) (MOE); [sp] = phosphorothioate linkage; [m5C] = 5-methylcytosine

molecular target: UBE3A-ATS; assay: mouse, dose not given; conditions: ASO

Substance | 3 h FOB score
RNA1{[moe](G)[sp].[moe]([m5C])[sp].[moe]([m5C])[sp].[moe]([m5C])[sp].[moe](A)[sp].d(T)[sp].d(G)[sp].d(G)[sp].d(A)[sp].d(T)[sp].d(G)[sp].d(G)[sp].d(T)[sp].d(T)[sp].d(G)[sp].[moe](T)[sp].[moe]([m5C])[sp].[moe](A)[sp].[moe](A)}$$$$ (last 3' nucleoside missing) | 7 score 0-7
RNA1{[moe](G)[sp].[moe]([m5C])p.[moe](A)p.[moe](A)p.[moe](A)p.d(T)[sp].d(A)[sp].d([m5C])[sp].d(A)[sp].d(A)[sp].d(T)[sp].d(G)[sp].d(G)[sp].d(T)[sp].d(A)[sp].[moe](A)p.[moe](T)p.[moe]([m5C])[sp].[moe](G)}$$$$ (last 3' nucleoside missing) | 4.2 score 0-7
RNA1{[moe](G)[sp].[moe]([m5C])p.[moe](A)p.[moe](A)p.[moe](T)p.d(G)[sp].d(G)[sp].d(A)[sp].d([m5C])[sp].d(T)[sp].d(T)[sp].d(A)[sp].d(G)[sp].d(T)[sp].d(A)[sp].[moe]([m5C])p.[moe](A)p.[moe]([m5C])[sp].[moe](A)}$$$$ (last 3' nucleoside missing) | 1 score 0-7
RNA1{[moe](G)[sp].[moe]([m5C])p.[moe](A)p.[moe](G)p.[moe]([m5C])p.d(T)[sp].d([m5C])[sp].d(T)[sp].d(T)[sp].d(T)[sp].d(G)[sp].d(T)[sp].d(A)[sp].d(G)[sp].d(G)[sp].[moe]([m5C])p.[moe]([m5C])p.[moe]([m5C])[sp].[moe](A)}$$$$ (last 3' nucleoside missing) | 3.3 score 0-7
RNA1{[moe](G)[sp].[moe]([m5C])p.[moe](A)p.[moe](T)[sp].d(A)[sp].d([m5C])[sp].d([m5C])[sp].d([m5C])[sp].d(A)[sp].d(G)[sp].d(G)[sp].d(G)[sp].[moe](T)p.[moe](A)p.[moe](G)p.[moe](G)[sp].[moe](A)}$$$$ (last 3' nucleoside missing) | 0 score 0-7
RNA1{[moe](G)[sp].[moe]([m5C])p.[moe](A)p.[moe](T)p.[moe](A)[sp].d([m5C])[sp].d([m5C])[sp].d([m5C])[sp].d(A)[sp].d(G)[sp].d(G)[sp].d(G)[sp].d(T)[sp].[moe](A)p.[moe](G)p.[moe](G)[sp].[moe](A)}$$$$ (last 3' nucleoside missing) | 1 score 0-7
RNA1{[moe](G)[sp].[moe]([m5C])p.[moe](A)p.[moe](T)p.[moe](A)p.[moe]([m5C])[sp].d([m5C])[sp].d([m5C])[sp].d(A)[sp].d(G)[sp].d(G)[sp].d(G)[sp].d(T)[sp].d(A)[sp].[moe](G)p.[moe](G)[sp].[moe](A)}$$$$ (last 3' nucleoside missing) | 1 score 0-7
RNA1{[moe](G)[sp].[moe]([m5C])p.[moe](A)p.[moe](T)p.[moe](A)p.[moe]([m5C])p.d([m5C])[sp].d([m5C])[sp].d(A)[sp].d(G)[sp].d(G)[sp].d(G)[sp].d(T)[sp].d(A)[sp].d(G)[sp].d(G)[sp].[moe](A)p.[moe](T)[sp].[moe](T)}$$$$ (last 3' nucleoside missing) | 1 score 0-7
RNA1{[moe](G)[sp].[moe]([m5C])p.[moe](A)p.[moe](T)p.[moe](A)p.d([m5C])[sp].d([m5C])[sp].d([m5C])[sp].d(A)[sp].d(G)[sp].d(G)[sp].d(G)[sp].d(T)[sp].d(A)[sp].d(G)[sp].[moe](G)p.[moe](A)p.[moe](T)[sp].[moe](T)}$$$$ (last 3' nucleoside missing) | 3 score 0-7
RNA1{[moe](G)[sp].[moe]([m5C])p.[moe](A)p.[moe](T)p.[moe](G)p.d(A)[sp].d(T)[sp].d(T)[sp].d([m5C])[sp].d(T)[sp].d(A)[sp].d(A)[sp].d([m5C])[sp].d([m5C])[sp].d(A)[sp].[moe](T)p.[moe](A)p.[moe](G)[sp].[moe](A)}$$$$ (last 3' nucleoside missing) | 1 score 0-7
RNA1{[moe](G)[sp].[moe]([m5C])p.[moe](A)p.[moe](T)p.[moe](G)p.d(T)[sp].d(G)[sp].d(G)[sp].d(G)[sp].d([m5C])[sp].d([m5C])[sp].d(T)[sp].d([m5C])[sp].d(T)[sp].d(A)[sp].[moe](T)p.[moe](T)p.[moe](A)[sp].[moe](A)}$$$$ (last 3' nucleoside missing) | 4 score 0-7
RNA1{[moe](G)[sp].[moe]([m5C])p.[moe](A)p.[moe](T)p.[moe](T)p.d(G)[sp].d(G)[sp].d([m5C])[sp].d(T)[sp].d(T)[sp].d([m5C])[sp].d(A)[sp].d(T)[sp].d(A)[sp].d(T)[sp].[moe](T)p.[moe](T)p.[moe]([m5C])[sp].[moe](T)}$$$$ (last 3' nucleoside missing) | 1 score 0-7
RNA1{[moe](G)[sp].[moe]([m5C])p.[moe](A)p.[moe](T)p.d(A)[sp].d([m5C])[sp].d([m5C])[sp].d([m5C])[sp].d(A)[sp].d(G)[sp].d(G)[sp].d(G)[sp].d(T)[sp].d(A)[sp].[moe](G)p.[moe](G)p.[moe](A)p.[moe](T)[sp].[moe](T)}$$$$ (last 3' nucleoside missing) | 1 score 0-7
RNA1{[moe](G)[sp].[moe]([m5C])p.[moe](A)p.[moe]([m5C])p.[moe](A)p.d(T)[sp].d(A)[sp].d(G)[sp].d(A)[sp].d([m5C])[sp].d([m5C])[sp].d(A)[sp].d(T)[sp].d(A)[sp].d(G)[sp].[moe]([m5C])p.[moe](T)p.[moe](G)[sp].[moe](A)}$$$$ (last 3' nucleoside missing) | 3.3 score 0-7
RNA1{[moe](G)[sp].[moe]([m5C])p.[moe](A)p.[moe]([m5C])p.[moe](A)p.d([m5C])[sp].d([m5C])[sp].d(T)[sp].d(G)[sp].d(G)[sp].d(A)[sp].d(T)[sp].d(T)[sp].d(T)[sp].d([m5C])[sp].[moe](A)p.[moe]([m5C])p.[moe](T)[sp].[moe](A)}$$$$ (last 3' nucleoside missing) | 2 score 0-7
RNA1{[moe](G)[sp].[moe]([m5C])p.[moe](A)p.[moe]([m5C])p.[moe](T)p.d(T)[sp].d(A)[sp].d(A)[sp].d(A)[sp].d(T)[sp].d(T)[sp].d(T)[sp].d(A)[sp].d(T)[sp].d([m5C])[sp].[moe](A)p.[moe](G)p.[moe](T)[sp].[moe](T)}$$$$ (last 3' nucleoside missing) | 3 score 0-7
RNA1{[moe](G)[sp].[moe]([m5C])p.[moe](T)p.[moe](A)p.[moe](T)p.d(A)[sp].d(G)[sp].d(G)[sp].d(T)[sp].d(G)[sp].d(T)[sp].d([m5C])[sp].d(A)[sp].d([m5C])[sp].d(A)[sp].[moe](T)p.[moe](A)p.[moe](T)[sp].[moe](T)}$$$$ (last 3' nucleoside missing) | 2 score 0-7
RNA1{[moe](G)[sp].[moe]([m5C])p.[moe](T)p.[moe](A)p.[moe](T)p.d(A)[sp].d([m5C])[sp].d([m5C])[sp].d([m5C])[sp].d([m5C])[sp].d(T)[sp].d(A)[sp].d(G)[sp].d(G)[sp].d(A)[sp].[moe](T)p.[moe]([m5C])p.[moe](A)[sp].[moe](G)}$$$$ (last 3' nucleoside missing) | 3.8 score 0-7
RNA1{[moe](G)[sp].[moe]([m5C])p.[moe](T)p.[moe](A)p.[moe](T)p.d([m5C])[sp].d(T)[sp].d(G)[sp].d(T)[sp].d(A)[sp].d([m5C])[sp].d(A)[sp].d(A)[sp].d(A)[sp].d(A)[sp].[moe](T)p.[moe](G)p.[moe](G)[sp].[moe](A)}$$$$ (last 3' nucleoside missing) | 0 score 0-7
RNA1{[moe](G)[sp].[moe]([m5C])p.[moe](T)p.[moe](G)[sp].d(A)[sp].d(T)[sp].d([m5C])[sp].d(A)[sp].d([m5C])[sp].d(A)[sp].d(T)[sp].d(T)[sp].[moe](A)p.[moe]([m5C])p.[moe]([m5C])p.[moe]([m5C])[sp].[moe](A)}$$$$ (last 3' nucleoside missing) | 0 score 0-7
RNA1{[moe](G)[sp].[moe]([m5C])p.[moe](T)p.[moe](G)p.[moe](A)[sp].d(T)[sp].d([m5C])[sp].d(A)[sp].d([m5C])[sp].d(A)[sp].d(T)[sp].d(T)[sp].d(A)[sp].[moe]([m5C])p.[moe]([m5C])p.[moe]([m5C])[sp].[moe](A)}$$$$ (last 3' nucleoside missing) | 1 score 0-7
RNA1{[moe](G)[sp].[moe]([m5C])p.[moe](T)p.[moe](G)p.[moe](A)p.[moe](T)[sp].d([m5C])[sp].d(A)[sp].d([m5C])[sp].d(A)[sp].d(T)[sp].d(T)[sp].d(A)[sp].d([m5C])[sp].[moe]([m5C])p.[moe]([m5C])[sp].[moe](A)}$$$$ (last 3' nucleoside missing) | 0 score 0-7
RNA1{[moe](G)[sp].[moe]([m5C])p.[moe](T)p.[moe](G)p.[moe](A)p.[moe](T)p.d([m5C])[sp].d(A)[sp].d([m5C])[sp].d(A)[sp].d(T)[sp].d(T)[sp].d(A)[sp].d([m5C])[sp].d([m5C])[sp].d([m5C])[sp].[moe](A)p.[moe](T)[sp].[moe]([m5C])}$$$$ (last 3' nucleoside missing) | 0 score 0-7
RNA1{[moe](G)[sp].[moe]([m5C])p.[moe](T)p.[moe](G)p.[moe](A)p.d(T)[sp].d([m5C])[sp].d(A)[sp].d([m5C])[sp].d(A)[sp].d(T)[sp].d(T)[sp].d(A)[sp].d([m5C])[sp].d([m5C])[sp].[moe]([m5C])p.[moe](A)p.[moe](T)[sp].[moe]([m5C])}$$$$ (last 3' nucleoside missing) | 0 score 0-7
RNA1{[moe](G)[sp].[moe]([m5C])p.[moe](T)p.[moe](G)p.[moe](T)p.d(A)[sp].d(A)[sp].d(G)[sp].d(T)[sp].d(A)[sp].d(T)[sp].d(A)[sp].d(G)[sp].d(A)[sp].d(T)[sp].[moe](G)p.[moe]([m5C])p.[moe]([m5C])[sp].[moe](T)}$$$$ (last 3' nucleoside missing) | 2 score 0-7
RNA1{[moe](G)[sp].[moe]([m5C])p.[moe](T)p.[moe](G)p.d(A)[sp].d(T)[sp].d([m5C])[sp].d(A)[sp].d([m5C])[sp].d(A)[sp].d(T)[sp].d(T)[sp].d(A)[sp].d([m5C])[sp].[moe]([m5C])p.[moe]([m5C])p.[moe](A)p.[moe](T)[sp].[moe]([m5C])}$$$$ (last 3' nucleoside missing) | 0 score 0-7
